In paper PMC6036174 (Frontiers in Microbiology, 2018):
Where two headings read alike, the source gives them in different places.

How the values were obtained:
[1] = tested on: M. tuberculosis H37Rv (ATCC 27294); assay: resazurin microtiter assay, MIC against M. tuberculosis H37Rv; type: cell-based, Mycobacterium tuberculosis; details: 7 days 37°C, 90% inhibition of growth
[2] = tested on: M. tuberculosis CDC1551; assay: broth tube MIC (visible pellet) against M. tuberculosis CDC1551; type: cell-based, Mycobacterium tuberculosis; details: for MIC100 / MIC / fold increase in potency compared to INH: M. tuberculosis CDC1551; for MIC100 / MIC: 14 days 37°C, no visible pellet; for MIC: read-out: MIC100
[3] = tested on: G. mellonella larvae; assay: in vivo toxicity in Galleria mellonella larvae; details: for % Mortality: 72 h post-injection; for In vivo G. mellonella tolerance order in μmol / In vivo G. mellonella tolerance order in μmol (Normalized against no. of phens): rank; for In vivo G. mellonella tolerance order in μmol: 1st = best tolerated, from Table 2; for In vivo G. mellonella tolerance order in μmol (Normalized against no. of phens): normalized with respect to phen content
Description: G. mellonella larvae in the 6th developmental stage were used to determine the in vivo cytotoxicity of the test complexes (Kellett et al., [2011]; Desbois and Coote, [2012]; McCann et al., [2012]). Thirty healthy larvae, each weighing between 0.2 and 0.4 g and with no cuticle discolouration, were used for each experiment. Fresh solutions of the test complexes were prepared immediately prior to testing under sterile conditions. Test compounds (0.05 g) were dissolved in DMSO (1 mL) and added to sterile water (9 mL) to give a stock solution/suspension (5,000 μg/mL). Test solutions/suspensions were prepared from the corresponding stock solution using Millipore water only to dilute to the desired concentration and each compound was screened across the concentration range of 5,000–100 mg/L. Test solutions/suspensions (20 μL) were administered to the larvae by injection directly into the haemocoel through the last pro-leg. The base of the pro-leg can be opened by applying gentle pressure to the sides of the larvae and this aperture will re-seal after removal of the syringe without leaving a scar. Larvae were placed in sterile Petri dishes and incubated at 30°C for 72 h. The survival of the larvae was monitored every 24 h. Death was assessed by the lack of movement in response to stimulus together with discolouration of the cuticle. Three controls were employed in all assays. The first consisted of untouched larvae maintained at the same temperature as the test larvae. The second was larvae with the pro-leg pierced with an inoculation needle but no solution injected. The third control was larvae that were inoculated with 20 μL of sterile water.

[4] = solubility in water (descriptive); type: physicochemical
[5] = tested on: A549 lung epithelial cells; assay: A549 cell cytotoxicity (MTT); details: 48 h incubation, MTT, called CC50 in methods; for IC50: read-out: Cytotoxicity IC50 A549 cells
[6] = tested on: VERO (ATCC CCL-81) normal epithelial cells; assay: VERO cell cytotoxicity (resazurin); details: 24 h incubation, called CC50 in methods; for IC50: read-out: Cytotoxicity IC50 VERO cells
[7] = tested on: M. tuberculosis H37Rv; details: cited from earlier work
[8] = design: method as in Poggi et al. ([2013]); details: descriptive; ref Poggi et al. ([2013]); cited from earlier work
[9] = 40 μg per larvae (133.33 mg/kg)
[10] = 100 μg per larvae (333.33 mg/kg)
[11] = M. tuberculosis H37Rv, ref Oliveira et al., [2014]
[12] = H37Rv, ref Segura et al. ([2014])
[13] = M. tuberculosis H37Rv, ref Hoffman et al., [2013]

Row | Compound | MIC90 [1] [µg/mL] | MIC90 ([1]; read-out: MIC90) [µM] | MIC100 [2] [µg/mL] | MIC [2] [µM] | % Mortality ([3]; 10 μg per larvae (33.33 mg/kg)) [%] | % Mortality ([3]; 20 μg per larvae (66.67 mg/kg)) [%] | % Mortality [3, 9] [%] | % Mortality [3, 10] [%] | In vivo G. mellonella tolerance order in μmol [3] | In vivo G. mellonella tolerance order in μmol (Normalized against no. of phens) [3] | solubility in water [4] | Cytotoxicity IC50 A549 cells [5] [µg/mL] | IC50 [5] [µM] | Cytotoxicity IC50 VERO cells [6] [µg/mL] | IC50 [6] [µM] | other results
1 | O.O.O.O.O.O=C([O-])c1ccccc1C(=O)[O-].[Mn+2].c1cnc2c(c1)ccc1cccnc12.c1cnc2c(c1)ccc1cccnc12 [compound 6, [Mn(ph)(phen)2(H2O)]·4H2O] | 1.42 | 2.12 | 0.38 | 0.57 | 0 | 80 | 90 | 90 | 7th | 5th | water-insoluble | 259.34 | 387 | 11.7 | 17.5 | 
2 | C/C(=N\NC(=S)Nc1ccccc1)c1ccccn1.C/C(=N\NC(=S)Nc1ccccc1)c1ccccn1.[Mn+2] [[Mn(atc-Ph)2]] |  |  |  |  |  |  |  |  |  |  |  |  |  |  |  | MIC [7, 11]: 1.31 µM
3 | {[Cu(3,6,9-tdda)(phen)2]·3H2O·EtOH}n [compound 4] | 10.03 | 13.48 | 0.75 | 1.01 | 0 | 80 | 90 | 90 | 8th | 6th | water-soluble | 1.06 | 1.42 | 5.85 | 7.86 | 
4 | NC(N)=S.NC(N)=S.O=[N+]([O-])[O-].O=[N+]([O-])[O-].[Ag+].[Ag+].c1cnc2c(c1)ccc1cccnc12.c1cnc2c(c1)ccc1cccnc12 [[{Ag(phen)(μ-tu)}2]X2 (X = NO3-), [{Ag(phen)(μ-tu)}2]X2] |  |  |  |  |  |  |  |  |  |  |  |  |  |  |  | MIC [7, 12]: 11.0 µM
5 | CNC(=S)N/N=C(\C)c1ccccn1.CNC(=S)N/N=C(\C)c1ccccn1.[Mn+2] [[Mn(atc-Me)2]] |  |  |  |  |  |  |  |  |  |  |  |  |  |  |  | MIC [7, 11]: 50.69 µM
6 | {[Mn(3,6,9-tdda)(phen)2]·3H2O·EtOH}n [compound 3] | 0.56 | 0.76 | 0.75 | 1.02 | 0 | 50 | 80 | 90 | 2nd | 2nd | water-soluble | 261.67 | 356 | 62.5 | 85 | 
7 | [Cl-].[Cl-].[Mn+2] [MnCl2·2H2O, reference compound] |  |  |  |  |  |  |  |  |  |  |  |  | 947 |  | 569 | 
8 | O.O.O=C([O-])c1ccccc1C(=O)[O-].[Mn+2].c1cnc2c(c1)ccc1cccnc12 [compound 5, [Mn(ph)(phen)(H2O)2]] | 0.57 | 1.31 | < 0.19 | < 0.44 | 0 | 80 | 90 | 90 | 6th | 6th | water-insoluble | 234.51 | 539 | 15.6 | 35.8 | 
9 | [CoCl(INH)2(H2O)]Cl·2.5H2O |  |  |  |  |  |  |  |  |  |  |  |  |  |  |  | MIC ([7]; M. tuberculosis H37Rv, ref Poggi et al. ([2013])): 0.41 µM; solubility in water [8]: only very sparingly soluble in water
10 | O.O.O.O.O.O=C([O-])c1ccc(C(=O)[O-])cc1.[Mn+2].c1cnc2c(c1)ccc1cccnc12.c1cnc2c(c1)ccc1cccnc12 [compound 9, [Mn(tereph)(phen)2]·5H2O] | 3.41 | 5.09 | 0.38 | 0.57 | 0 | 80 | 90 | 90 | 7th | 5th | water-insoluble | 251.94 | 376 | 46.9 | 70 | 
11 | O.O.[Cl-].[Cl-].[Mn+2] [MnCl2·2H2O, reference compound] |  |  |  |  |  |  |  |  |  |  |  | 153.4 |  | 92.1 |  | 
12 | O.O.O.O.O.O.O.O.O.O.O.O.O.O.O.O.O=C([O-])c1cccc(C(=O)[O-])c1.O=C([O-])c1cccc(C(=O)[O-])c1.[Mn+2].[Mn+2].c1cnc2c(c1)ccc1cccnc12.c1cnc2c(c1)ccc1cccnc12.c1cnc2c(c1)ccc1cccnc12.c1cnc2c(c1)ccc1cccnc12.c1cnc2c(c1)ccc1cccnc12 [compound 8, {[Mn(phen)2(H2O)2]}2(isoph)2(phen)·12H2O] | 3.01 | 1.85 |  |  | 0 | 80 | 90 | 90 | 9th | 5th | water-insoluble | 251.76 | 155 | 46.9 | 28.8 | fold increase in potency compared to INH [2]: ~3 fold
13 | [Mn2(oda)(phen)4(H2O)2][Mn2(oda)(phen)4(oda)2]·4H2O [compound 1] | 1.15 | 0.47 |  |  | 0 | 40 | 90 | 90 | 1st | 1st | water-soluble | > 512 | > 208 | 375 | 153 | fold increase in potency compared to INH [2]: ~3 fold; fold increase in inhibitory activity against CDC1551 relative to H37Rv ([2]; MIC CDC1551 vs H37Rv): 3 fold
14 | O=P([O-])(O)OP(=O)([O-])O.[Co+2].c1cnc2c(c1)ccc1cccnc12.c1cnc2c(c1)ccc1cccnc12 [[Co(phen)2(H2P2O7)]] |  |  |  |  |  |  |  |  |  |  |  |  |  |  |  | MIC [7, 13]: 2.05 µM
15 | NC(N)=S.NC(N)=S.O=S(=O)([O-])C(F)(F)F.O=S(=O)([O-])C(F)(F)F.[Ag+].[Ag+].c1cnc2c(c1)ccc1cccnc12.c1cnc2c(c1)ccc1cccnc12 [[{Ag(phen)(μ-tu)}2]X2 (X = CF3 SO3-), [{Ag(phen)(μ-tu)}2]X2] |  |  |  |  |  |  |  |  |  |  |  |  |  |  |  | MIC [7, 12]: 14.2 µM
16 | [Cu2(oda)(phen)4](ClO4)2·2.76H2O·EtOH [compound 2] | 16.60 | 12.68 | 1.50 | 1.15 | 0 | 50 | 90 | 90 | 3rd | 2nd | water-soluble | 0.98 |  | 11.7 | 8.94 | 
17 | O.O=P([O-])(O)OP(=O)([O-])O.[Cu+2].c1cnc2c(c1)ccc1cccnc12 [[Cu(phen)(H2O)(H2P2O7)]] |  |  |  |  |  |  |  |  |  |  |  |  |  |  |  | MIC [7, 13]: 71.53 µM
18 | O.O.O.O.O=C([O-])c1cccc(C(=O)[O-])c1.O=C([O-])c1cccc(C(=O)[O-])c1.[Mn+2].[Mn+2].c1cnc2c(c1)ccc1cccnc12.c1cnc2c(c1)ccc1cccnc12.c1cnc2c(c1)ccc1cccnc12 [compound 7, [Mn2(isoph)2(phen)3]·4H2O] | 1.56 | 1.48 |  |  | 0 | 60 | 80 | 90 | 4th | 3rd | water-insoluble | 255.87 | 244 | 125 | 119 | 
